From patent US11596716B2, “Compounds and matrices for use in bone growth and repair” (Human BioMolecular Research Institute, priority 2013, dated 2023) come the findings set out here.

In the test the test system is C2C12 cells. The test can be described thus: Alkaline Phosphatase (ALP) functional activity assay in C2C12 cells. The format is cell-based, Mouse. As to conditions: normalized to DMSO treatment; for activation at 0.5 µM: Mus musculus, C2C12, 144 h. The procedure:
Alkaline Phosphatase (ALP) Functional Activity Assay: C2C12 cells were plated into 12-well plates with 7,000 cells/well in 1 mL growth media. […] 1, 2, 3, or 4 in 0.1% DMSO was added (500 nM). Half the media was exchanged with fresh media containing compound every 48 hrs. After 6 days, media was removed, ALP Lysis Buffer (10 mM Tris-HCl pH 8.0, 1 mM MgCl2, and 1% Triton X100) added, and cell lysate obtained (10 min incubation at RT) by centrifugation (5 min at 3500× g at 4° C.). Para-nitrophenol phosphate (pNPP) (2 mg/mL) was incubated with 50 μl cell lysate (10 mins, 37° C.). After addition of […] 0.02 N NaOH, absorbance OD405 was measured. Protein concentration was determined by Bradford protein assay. Results of ALP activity were plotted as nM pNP hydrolyzed/mg total protein. After normalizing control samples (i.e., DMSO-treated samples) to one-fold, the fold-changes were plotted to indicate the relative ALP activity. […] This protocol was applied to hMSC and E15 cells as well.

Where [1] appears, read: compounds of Formula II or IV, absence of matrix.
Setting [2] is: compounds of Formula II or IV, presence of calcium phosphate matrix.
Setting [3] is: compounds of Formula VI, absence of matrix.
Where [4] appears, read: compounds of Formula VI, presence of calcium phosphate matrix.

In the case of `Cc1ccc(N[C@@H]2C[C@H](C)Nc3ccc(C)cc32)cc1` (relative stereo) [Compound 5, cis-2,6-dimethyl-N-(p-methylphenyl)-1,2,3,4-tetrahydroquinolin-4-amine], the activation at 0.5 µM reads like this: under setting [1], 5 to 50%; under setting [2], 5 to 50%.
`Cc1ccc(N[C@H]2C[C@H](C)Nc3ccc(C)cc32)cc1` (relative stereo) [Compound 6, trans-2,6-dimethyl-N-(p-methylphenyl)-1,2,3,4-tetrahydroquinolin-4-amine]: the activation at 0.5 µM was 50 to 100% under setting [1] and less than 5% under setting [2].
Regarding `C[C@H]1C[C@@H](Nc2ccccc2)c2ccccc2N1` (relative stereo) [Compound 7, cis-2-methyl-N-phenyl-1,2,3,4-tetrahydroquinolin-4-amine], the activation at 0.5 µM runs as follows: under setting [1], 5 to 50%; under setting [2], 5 to 50%.
In the case of `C[C@H]1C[C@H](Nc2ccccc2)c2ccccc2N1` (relative stereo) [Compound 8, trans-2-methyl-N-phenyl-1,2,3,4-tetrahydroquinolin-4-amine], the activation at 0.5 µM is 5 to 50% under setting [1] and 5 to 50% under setting [2].
On to `COc1ccc(N[C@@H]2C[C@H](C)Nc3ccc(OC)cc32)cc1` (relative stereo) [Compound 11, cis-2-methyl-6-methoxy-N-(p-methoxyphenyl)-1,2,3,4-tetrahydroquinolin-4-amine], for which the activation at 0.5 µM reads like this: under setting [1], less than 5%; under setting [2], 50 to 100%.
With `COc1ccc(N[C@H]2C[C@H](C)Nc3ccc(OC)cc32)cc1` (relative stereo) [Compound 12, trans-2-methyl-6-methoxy-N-(p-methoxyphenyl)-1,2,3,4-tetrahydroquinolin-4-amine], the activation at 0.5 µM by setting is: under setting [1], more than 100%; under setting [2], 5 to 50%.
Regarding `CC(=O)N1c2ccc(C)cc2[C@@H](Nc2ccc(C)cc2)C[C@@H]1C` (relative stereo) [Compound 13, trans-1-acetyl-2,6-dimethyl-N-(p-methylphenyl)-1,2,3,4-tetrahydroquinolin-4-amine], the activation at 0.5 µM under setting [1] was more than 100% and the activation at 0.5 µM under setting [2] was less than 5%.
As to `Cc1ccc(N[C@H]2C[C@H](C)N(C(=O)C(C)C)c3ccc(C)cc32)cc1` (relative stereo) [Compound 15, trans-1-(2-propylcarbonyl)-2,6-dimethyl-4-(4-methylphenylamino)-1,2,3,4-tetrahydroquinoline], the activation at 0.5 µM runs as follows: under setting [1], less than 5%; under setting [2], 50 to 100%.
Regarding `Cc1ccc(N[C@@H]2C[C@H](C)N(C(=O)c3ccccc3)c3ccc(C)cc32)cc1` (relative stereo) [Compound 18, cis-1-benzoyl-2,6-dimethyl-N-(p-methylphenyl)-1,2,3,4-tetrahydroquinolin-4-amine], the activation at 0.5 µM by setting is: under setting [1], more than 100%; under setting [2], less than 5%.
Regarding `Cc1ccc(N[C@H]2C[C@H](C)N(C(=O)c3ccccc3)c3ccc(C)cc32)cc1` (relative stereo) [Compound 19, trans-1-benzoyl-2,6-dimethyl-N-(p-methylphenyl)-1,2,3,4-tetrahydroquinolin-4-amine], the activation at 0.5 µM is less than 5% under setting [1] and less than 5% under setting [2].
In the case of `CC(=O)N1c2ccc(F)cc2[C@H](Nc2ccc(F)cc2)C[C@@H]1C` (relative stereo) [Compound 21, cis-1-acetyl-2-methyl-6-fluoro-N-(p-fluorophenyl)-1,2,3,4-tetrahydroquinolin-4-amine], the activation at 0.5 µM is, setting by setting: under setting [1], 5 to 50%; under setting [2], 5 to 50%.
Take `CC(=O)N1c2ccc(F)cc2[C@@H](Nc2ccc(F)cc2)C[C@@H]1C` (relative stereo) [Compound 22, trans-1-acetyl-2-methyl-6-fluoro-N-(p-fluorophenyl)-1,2,3,4-tetrahydroquinolin-4-amine]: the activation at 0.5 µM runs as follows: under setting [1], 5 to 50%; under setting [2], less than 5%.
The matching figures for `C[C@H]1C[C@@H](Nc2ccc(F)cc2)c2cc(F)ccc2N1C(=O)c1ccccc1` (relative stereo) [Compound 23, cis-1-benzoyl-2-methyl-6-fluoro-N-(p-fluorophenyl)-1,2,3,4-tetrahydroquinolin-4-amine]: 50 to 100% and 5 to 50%.
In the case of `C[C@H]1C[C@H](Nc2ccc(F)cc2)c2cc(F)ccc2N1C(=O)c1ccccc1` (relative stereo) [Compound 24, trans-1-benzoyl-2-methyl-6-fluoro-N-(p-fluorophenyl)-1,2,3,4-tetrahydroquinolin-4-amine], the activation at 0.5 µM was 50 to 100% under setting [1] and less than 5% under setting [2].
On to `COc1ccc(C(=O)N2c3ccc(F)cc3[C@H](Nc3ccc(F)cc3)C[C@@H]2C)cc1` (relative stereo) [Compound 25, cis-1-(p-methoxybenzoyl)-2-methyl-6-fluoro-N-(p-fluorophenyl)-1,2,3,4-tetrahydroquinolin-4-amine], for which the activation at 0.5 µM reads like this: under setting [1], 5 to 50%; under setting [2], 5 to 50%.
Take `COc1ccc(C(=O)N2c3ccc(F)cc3[C@@H](Nc3ccc(F)cc3)C[C@@H]2C)cc1` (relative stereo) [Compound 26, trans-1-(p-methoxybenzoyl)-2-methyl-6-fluoro-N-(p-fluorophenyl)-1,2,3,4-tetrahydroquinolin-4-amine]: the activation at 0.5 µM is, setting by setting: under setting [1], less than 5%; under setting [2], 50 to 100%.
Regarding `CC(=O)N1c2ccc(C)cc2[C@@H](N(C(C)=O)c2ccc(C)cc2)C[C@@H]1C` (relative stereo) [Compound 27, trans-1-acetyl-2,6-dimethyl-N-(p-methylphenyl)-N-acetyl-1,2,3,4-tetrahydroquinolin-4-amine], the activation at 0.5 µM under setting [1] fell in the range of 5 to 50% and the activation at 0.5 µM under setting [2] was in the range of 5 to 50%.
In the case of `Cc1ccc(N(C(=O)c2ccccc2)[C@H]2C[C@H](C)N(C(=O)c3ccccc3)c3ccc(C)cc32)cc1` (relative stereo) [Compound 28, trans-1-benzoyl-2,6-dimethyl-N-(p-methylphenyl)-N-benzoyl-1,2,3,4-tetrahydroquinolin-4-amine], the activation at 0.5 µM runs as follows: under setting [1], less than 5%; under setting [2], less than 5%.
`C[C@H]1C[C@H](N(C(=O)c2ccccc2)c2ccc(F)cc2)c2cc(F)ccc2N1C(=O)c1ccccc1` (relative stereo) [Compound 29, trans-1-benzoyl-2-methyl-6-fluoro-N-(p-fluorophenyl)-N-benzoyl-1,2,3,4-tetrahydroquinolin-4-amine]: the activation at 0.5 µM is, setting by setting: under setting [1], more than 100%; under setting [2], less than 5%.
On to `COc1ccc(C(=O)N2c3ccc(F)cc3[C@@H](N(C(=O)c3ccc(OC)cc3)c3ccc(F)cc3)C[C@@H]2C)cc1` (relative stereo) [Compound 30, trans-1-(p-methoxybenzoyl)-2-methyl-6-fluoro-N-(p-fluorophenyl)-N-(p-methoxybenzoyl)-1,2,3,4-tetrahydroquinolin-4-amine], for which the activation at 0.5 µM reads like this: under setting [1], less than 5%; under setting [2], 5 to 50%.
With `COc1cc(N(C)C)ccc1C=CC(=O)C=C(O)C=Cc1ccc(N(C)C)cc1OC` [Compound 39, 1,7-Bis(4-dimethylamino-2-methoxyphenyl). 5-hydroxy-hepta-1,4,6-trien-3-one], under setting [3], the “ALP activity −matrix” value was “+++ (>100%)”. In addition, under setting [4], the “ALP activity +matrix” value is “− (<5%)”.
With `CN(C)c1ccc(C=CC(=O)C=C(O)C=Cc2ccc(N(C)C)cc2)cc1` [Compound 47, 1,7-Bis-(4-dimethylaminophenyl)-5-hydroxy-hepta-1,4,6-trien-3-one], the activation at 0.5 µM reads like this: under setting [3], more than 100%; under setting [4], less than 5%.
As to `COc1ccc(C=CC(=O)C=C(O)C=Cc2ccc(OC)c(O)c2)cc1O` [Compound 48, 5-Hydroxy-1,7-bis-(3-hydroxy-4-methoxyphenyl)-hepta-1,4,6-trien-3-one], the activation at 0.5 µM reads like this: under setting [3], more than 100%; under setting [4], less than 5%.
In the case of `COc1cc(O)ccc1C=CC(=O)C=C(O)C=Cc1ccc(O)cc1OC` [Compound 49, 5-Hydroxy-1,7-bis-(4-hydroxy-2-methoxyphenyl)-hepta-1,4,6-trien-3-one], the activation at 0.5 µM is, setting by setting: under setting [3], 50 to 100%; under setting [4], less than 5%.
As to `COc1ccc(F)cc1C=CC(=O)C=C(O)C=Cc1cc(F)ccc1OC` [Compound 53, 1,7-Bis-(5-fluoro-2-methoxyphenyl)-5-Hydroxy-hepta-1,4,6-trien-3-one], the activation at 0.5 µM by setting is: under setting [3], less than 5%; under setting [4], less than 5%.
With `O=C(C=Cc1ccc(O)cc1)C1CCCC(=Cc2ccc(O)cc2)C1=O` (stereo not drawn) [Compound 55, 2-(4-Hydroxybenzylidene)-6-(3-(4-hydroxyphenyl)acryloyl)-cyclohexanone], the activation at 0.5 µM by setting is: under setting [3], 5 to 50%; under setting [4], 5 to 50%.
In the case of `COc1ccc(F)cc1C=CC(O)=C1CCCC(=Cc2cc(F)ccc2OC)C1=O` [Compound 56, 2-(5-Fluoro-2-methoxybenzylidene)-6-(3-(5-fluoro-2-methoxyphenyl)-1-hydroxyallylidene) cyclohexanone], the activation at 0.5 µM by setting is: under setting [3], less than 5%; under setting [4], more than 100%.
